Data: article PMC6814295 (Insect biochemistry and molecular biology, 2018)

Legend:
[1] = biological target: AaPK1 (Aedes aegypti pyruvate kinase 1) (Aedes aegypti, UniProt Q16F38); test: LDH-coupled NADH oxidation at […] nm, PEP varied; assay type: biochemical; details: 1 mM effector, 2 mM ADP, 20 mM MgCl2, 50 mM KCl, pH 7.5, 25 °C
[2] = biological target: Aedes aegypti pyruvate kinase 1 (Aedes aegypti); test: crystal structure

Compound	LDH-coupled NADH oxidation at 340 nm, PEP varied ([1]; allosteric activator)	other results
O=P(O)(O)OCC1(O)O[C@H](CO)[C@@H](O)[C@@H]1O (stereo partly shown) [F1P, fructose-1-phosphate]	our results indicate that F1P is an allosteric activator	–
O=C(CO)[C@H](O)[C@H](O)COP(=O)(O)O [R5P, ribulose-5-phosphate]	–	LDH-coupled NADH oxidation at 340 nm, PEP varied ([1]; allosteric inhibitor): while R5P is an allosteric inhibitor of AaPK1
C[C@H](N)C(=O)O [alanine]	AaPK1 is regulated by alanine, glutamine, proline, and serine in a classic allosteric fashion	–
NC(=O)CC[C@H](N)C(=O)O [glutamine]	AaPK1 is regulated by alanine, glutamine, proline, and serine in a classic allosteric fashion	–
O=C(O)[C@@H]1CCCN1 [proline]	AaPK1 is regulated by alanine, glutamine, proline, and serine in a classic allosteric fashion	–
N[C@@H](CO)C(=O)O [serine]	AaPK1 is regulated by alanine, glutamine, proline, and serine in a classic allosteric fashion	–
Aedes aegypti pyruvate kinase 1 (enzyme)	–	stoichiometry N [2]: 4
